Measurements published in US20240327359A1, “3-ISOXAZOLIDINONE COMPOUND, PREPARATION METHOD, HERBICIDAL COMPOSITION AND APPLICATION THEREOF” (QINGDAO KINGAGROOT CHEMICAL COMPOUND CO., LTD., priority 2021, published 2024).

Key:
Type in all cases: in vivo
corn = assay: Pre-emergence stage, crop damage; details: 24 g a.i./mu, 2 weeks
Source text: (§1) The activity level criteria for plant damage (i.e., growth control rate) are as follows:
(§2) The above growth control rates are fresh weight control rates.
(§3) Monocotyledonous and dicotyledonous weed seeds (Descurainia sophia, Capsella bursa-pastoris, Abutilon theophrasti, Galium aparine, Stellaria media, Lithospermum arvense, Rorippa indica, Alopecurus aequalis, Alopecurus japonicus, Eleusine indica, Beckmannia syzigachne, Sclerochloa dura, Phleum paniculatum, Veronica didyma, Bromus japonicus, Aegilops tauschii, Phalaris arundinacea, Amaranthus retroflexus, Chenopodiaceae, Commelina communis, Sonchus arvensis, Convolvulus arvensis, Cirsium setosum, Solanumnigrum, Acalypha australis, Digitaria sanguinalis, Echinochloa crusgalli, Setaria viridis, Setaria glauca, Leptochloa chinensis, Monochoria vaginalis, Sagittaria trifolia, Scirpus juncoides, Cyperus rotundus, Cyperus iria, Cyperus difformis, Fimbristylis, Portulaca oleracea, Xanthium sibiricum, Pharbitis nil, Conyza Canadensis, etc.) and major crop seeds (wheat, corn, rice, soybean, cotton, oilseed rape, millet, sorghum, potato, sesame, ricinus, etc.) were placed in plastic pots filled with soil, then covered with 0.5-2 cm of soil, allowed to grow in a good greenhouse environment. The test plants were treated on the day of sowing. The tested compounds of the present invention were respectively dissolved in acetone, then added with Tween 80, diluted with a certain amount of water to obtain a solution of a certain concentration, and sprayed by a spray tower onto the plants. After the application, the plants were cultured for 2 weeks in the greenhouse, and then the experimental results of the weeding were recorded. The doses of the used compounds were 3, 6, 12, 24, 48 g ai./mu (1 mu=1/15 ha), and the averages were obtained from three replicates.

cotton = assay: Pre-emergence stage, crop damage; details: 2 weeks
Source text: as §1, §2, §3

peanut = assay: Pre-emergence stage, crop damage; details: 48 g a.i./mu, 2 weeks
Source text: as §1, §2, §3

rice = assay: Pre-emergence stage, crop damage; details: 2 weeks
Source text: as §1, §2, §3

soy bean = assay: Pre-emergence stage, crop damage; details: 2 weeks
Source text: as §1, §2, §3

wheat = assay: Pre-emergence stage, crop damage; details: 2 weeks
Source text: as §1, §2, §3

Descurainia sophia = assay: Weeding effect in pre-emergence stage; details: 2 weeks
Source text: as §1, §2, §3

Echinochloa crusgalli = assay: Weeding effect in pre-emergence stage; details: 2 weeks
Source text: as §1, §2, §3

Leptochloa chinensis = assay: Weeding effect in pre-emergence stage; details: 2 weeks
Source text: as §1, §2, §3

Lolium perenne = assay: Weeding effect in pre-emergence stage; details: 2 weeks
Source text: as §1, §2, §3

Veronica didyma = assay: Weeding effect in pre-emergence stage; details: 2 weeks
Source text: as §1, §2, §3

[1] = tested on: spinach, radish, Chinese cabbage, sesame, rape, cucumber, watermelon, melon, pumpkin, cassava, soybean, kidney bean, cowpea, common bean, hyacinth bean, sponge …; assay: Field test, crop safety; details: applied after planting and pre-emergence at 300 g a.i./ha
[2] = tested on: Echinochloa crusgalli, Leptochloa chinensis, Digitaria sanguinalis, Descurainia Sophia, Capsella bursa-pastoris, Galium aparine, Stellaria media, Lolium …; assay: Field test, weed control; details: applied after planting and pre-emergence at 300 g a.i./ha
Galium aparine = assay: Activity test of the compositions, post-emergence treatment by foliage spray; details: foliage (F), A 16 g a.i./mu
Protocol: The desired active ingredient B was purchased from a reagent company or synthesized by a known method. The technical materials were all dissolved in acetone and diluted with an aqueous solution containing 0.10% emulsifier Tween-80 which were to be used immediately after dilution.
Weeds were cultivated by a pot culture method. […] Weed seeds with plump and uniform grains were selected, soaked in lukewarm water at 25° C. for 6 hours, and germinated in a 28° C. biochemical incubator (in darkness). The weed seeds that had just germinated were evenly placed on the surface of the soil and then covered with 0.5-1 cm soil according to the sizes of seeds.
Each treatment was repeated 4 times. Four pots with 20 weed seeds per pot were treated each time.
The agents were used for only once in total in the experiment. In the stage of 1.5-2 leaves, the weeds were thinned out to maintain 10 weeds per pot. Ten weeds were kept in each treatment, then continued to be cultured until Echinochloa crus-galli var. zelayensis reached the stage of 2-3 leaves, Cirsium setosum reached the stage of 5-6 leaves, Galium aparine reached the stage of 3-4 whorl leaves, Amaranthus retroflexus reached the stage of 3-5 leaves, Echinochloa crusgalli, Lolium multiflorum and Digitaria sanguinalis reached the stage of 3 leaves with one leaf not fully expanding for further treatment.
The well-cultured test materials were evenly placed on a platform with an area of 0.5 m^2, and solution of agents was sprayed on the stems and leaves thereof by the 3WP-2000-type walking spray tower at a dosage of 450 kg/ha and at a spray pressure of 0.3 MPa. After all the solution was sprayed, the valve was closed. After 30 seconds, the door of the spray tower was opened, and the nutritional bowl was taken out. Then the valve was opened, and the spray tube was cleaned by spraying 50 ml of water. After the treatment, the weeds were routinely cultured in a greenhouse.
A method for investigating absolute numbers was employed. Whole seedlings of survival weeds were cut off with a blade along the soil surface, and the fresh weight of the weeds was weighed with an analytical balance. For dead weeds, the fresh weight thereof was zero.
The investigation was performed 21 days after the treatment for only once in total.

CC1(C)CON(Cc2ccc(Cl)cc2Br)C1=O [Compound 1] was tested, and the “plant damage level (growth control rate) on crop, pre-emergence stage” value (“plant damage level (growth control rate)” for short) (corn) was 0, the “plant damage level (growth control rate)” value (cotton; 12 g a.i./mu) was 0 and the “plant damage level (growth control rate)” value (cotton; 24 g a.i./mu) was 0. For the same compound, the “plant damage level (growth control rate)” value (peanut) was 0, the “plant damage level (growth control rate)” value (rice; 6 g a.i./mu) was 0 and the “plant damage level (growth control rate)” value (rice; 12 g a.i./mu) was 0. For the same compound, the “plant damage level (growth control rate)” value (rice; 24 g a.i./mu) was 1 (Level 1: growth control rate is greater than 0% and less than 15%), the “plant damage level (growth control rate)” value (soy bean; 24 g a.i./mu) was 0 and the “plant damage level (growth control rate)” value (soy bean; 48 g a.i./mu) was 0. The “plant damage level (growth control rate)” value (wheat; 6 g a.i./mu) was 0, the “plant damage level (growth control rate)” value (wheat; 12 g a.i./mu) was 0 and the “plant damage level (growth control rate)” value (wheat; 24 g a.i./mu) was 0. The “weeding effect in pre-emergence stage, activity level (growth control rate)” value (“weeding effect in pre-emergence stage” for short) (Descurainia sophia; 3 g a.i./mu) was 7 (Level 7: growth control rate is greater than or equal to 70% and less than 80%), the “weeding effect in pre-emergence stage” value (Descurainia sophia; 6 g a.i./mu) was 9 and the “weeding effect in pre-emergence stage” value (Descurainia sophia; 12 g a.i./mu) was 9. The “weeding effect in pre-emergence stage” value (Descurainia sophia; 24 g a.i./mu) was 9, the “weeding effect in pre-emergence stage” value (Echinochloa crusgalli; 3 g a.i./mu) was 8 (Level 8: growth control rate is greater than or equal to 80% and less than 100%) and the “weeding effect in pre-emergence stage” value (Echinochloa crusgalli; 6 g a.i./mu) was 9. For the same compound, the “weeding effect in pre-emergence stage” value (Echinochloa crusgalli; 12 g a.i./mu) was 9, the “weeding effect in pre-emergence stage” value (Echinochloa crusgalli; 24 g a.i./mu) was 9 and the “weeding effect in pre-emergence stage” value (Leptochloa chinensis; 3 g a.i./mu) was 9. The “weeding effect in pre-emergence stage” value (Leptochloa chinensis; 6 g a.i./mu) was 9, the “weeding effect in pre-emergence stage” value (Leptochloa chinensis; 12 g a.i./mu) was 9 and the “weeding effect in pre-emergence stage” value (Leptochloa chinensis; 24 g a.i./mu) was 9. For the same compound, the “weeding effect in pre-emergence stage” value (Lolium perenne; 6 g a.i./mu) was 2 (Level 2: growth control rate is greater than or equal to 15% and less than 30%), the “weeding effect in pre-emergence stage” value (Lolium perenne; 24 g a.i./mu) was 9 and the “weeding effect in pre-emergence stage” value (Veronica didyma; 6 g a.i./mu) was 8 (Level 8: growth control rate is greater than or equal to 80% and less than 100%). For the same compound, the “weeding effect in pre-emergence stage” value (Veronica didyma; 12 g a.i./mu) was 9, the “weeding effect in pre-emergence stage” value (Veronica didyma; 24 g a.i./mu) was 9 and the “crop safety in field test” value [1] was “safe”. The “control of major weeds in field test” value [2] was “effectively controls” and the “Control effect (%) of A applied alone (A)” value (Galium aparine) was 55.4%.
